# Experimental data published in a melting point compilation (Tetko et al.; mined from patent text by program, amines drawn as free bases though some values may be those of a salt).
row,Structure (SMILES),melting point [°C]
1,Cn1c(=O)c(=O)[nH]c2cc([N+](=O)[O-])c([N+](=O)[O-])cc21,370 to 380
2,CCCc1nc2c(c(C)c(C)n3nnnc23)n1CC(C)(C)NS(C)(=O)=O,190 to 192
3,CCCCCCOC1CC(C)(C)N(c2nc(Cl)nc(Cl)n2)C(C)(C)C1,49 to 51
4,O=C(NC[C@@H](C(=O)NO)N1CCOCC1)c1ccc(OCc2ccnc(-c3cccc(C(F)(F)F)c3)c2)cc1,151
5,Nc1cccc(Oc2ccc(Sc3ccc(Oc4cccc(N)c4)cc3)cc2)c1,112 to 113
6,COc1ccc(C(=O)Nc2ccccc2)cc1,156 to 158
7,COc1ccc(-n2ccnc2C(c2cc(F)ccc2F)S(=O)(=O)c2ccc(Cl)cc2)cc1 (configuration not stated),150 to 151
8,COc1ccc(S(=O)(=O)Nc2c(Cl)cncc2Cl)c2c1oc1ccccc12,242 to 244
9,NS(=O)(=O)c1cc2cc(N(Cc3ccccc3)Cc3ccccc3)ccc2s1,122 to 124
10,CCOC(=O)c1c(C(F)(F)F)nn(-c2c(Cl)cc(Cl)cc2Cl)c1N,114 to 116
11,COc1ccc(Cn2c(=O)c3cc([N+](=O)[O-])ccc3n(CCCCBr)c2=O)cc1,143 to 144
12,Cc1c(NC(=O)c2ccc(OCC3CCOC3)cc2)ccc2cc(CN3CCC(C)(O)CC3)cnc12 (configuration not stated),160 to 162
13,CCS(=O)(=O)CCC(=O)NNC(=O)N1Cc2ccccc2Oc2c(Cl)cccc21,209 to 211
14,N#CCc1cccc(Cc2ccccc2)c1,136 to 137
15,COc1ccc2cc3c(c(-c4ccc5c(c4)OCO5)c2c1)CNC3=O,259 to 262
16,Cn1nc(-c2ccc(Cl)cc2)c2c(=O)n3c(nc21)SCC3,256 to 257
17,O=c1[nH][nH]c(C(F)(F)F)c1Cc1ccc(F)cc1,159 to 160
18,O=C(Nc1ccccc1)c1c(C(=S)Nc2ccccc2)cccc1-c1ccccc1,150 to 152
19,O=C(O)CC(CC(=O)O)c1ccc(F)cc1,145 to 147
20,CC(C)(C)OC(=O)NC1C=C(C(=O)O)OC1 (configuration not stated),117 to 120
21,CCCc1nc(NCCOC(C)=O)nc(N2CCOCC2)n1,94 to 95
22,CC12CCC(O)CC1=CC(O)C1C2CCC2(C)C(O)C(O)CC12 (configuration not stated),217 to 221
23,Cc1cccc(C(=O)NN=Cc2cccc(Cl)c2O)c1,166 to 169
24,Cc1cc([N+](=O)[O-])c(NC(C)C)c([N+](=O)[O-])c1C(C)C,54 to 55
25,CCOC(=O)Cn1cc(I)c(NC(=O)c2ccccc2)nc1=O,154 to 155

row,Structure (SMILES),melting point [°C]
1,CCOC(=O)c1ccc(-c2nc(COc3ccc(COc4nn(-c5ccccc5)cc4C=O)cc3OC)c(C)o2)o1,143 to 145
2,CC1(C)CC(=O)C(S(=O)(=O)Cc2ccc(Cl)cc2)=C(O)C1,111 to 113
3,Cc1nc2ccccc2n1C1CCNCC1,130 to 132
4,CCCCN(CCCC)C(=O)Nc1cccc(Br)c1,80 to 81
5,Oc1ccc(OCCCCI)cc1,51 to 53
6,Cn1c(=O)c2cc(C(=O)O)cn2c2ccccc21,330 to 333
7,c1coc(Cn2c(NC3CCNCC3)nc3cccnc32)c1,159
8,C=C1CC2CC(O)CCC2(C)C2CC(O)C3(C)C(C(C)CCC(=O)O)CCC3C12 (configuration not stated),199 to 202
9,Cc1cccc(C)c1C(=O)c1nc[nH]c1C,179 to 181
10,Cc1ccc(C(=O)Nc2ccc(-n3ccnc3)c(C(F)(F)F)c2)cc1Nc1nccc(-c2cccnc2)n1,226 to 229
11,CS(=O)c1ccc2c(c1)C=C(C(=O)O)C(C(F)(F)F)O2 (configuration not stated),148 to 151
12,N#CCCNC(=O)c1cccc(-c2cccc3c2OC(Cc2cccc(C(F)(F)F)c2)C3)c1 (configuration not stated),145 to 146
13,C[C@H](NC(=O)c1c[nH]c2ncc(-c3cn(-c4cc(C(F)(F)F)ccc4F)cn3)nc12)C(C)(C)C,> 300
14,Cn1c(-c2ccc(N3CCOCC3)cc2)cnc1[C@H](Cc1ccccn1)N(C=O)c1nc2cc(Cl)ccc2s1,96 to 99
15,CC(C)Oc1ccc(OC(=O)c2ccc(C(=O)Oc3ccc(OC(C)C)cc3)cc2)cc1,192 to 194
16,COc1c(NC(=O)c2ccc(-c3ccncc3)cc2)cccc1N1CCN(C)CC1,153 to 155
17,Cc1cccc(C)c1CNc1cc(C(=O)N(C)CCO)cc2c1nc(C)n2C,177 to 178
18,CCC(=O)NC[C@@H]1C[C@H]1c1c(F)ccc2nn(C)cc12 (relative stereo),158 to 159
19,CCOc1nn(Cc2ccc(OCc3ccc4ccccc4n3)cc2)cc1CCC(=O)O,140 to 141
20,COc1cc(-c2ncn(C)c2-c2ccc3c(c2)NCCO3)cc(OC)c1OC,160 to 162
21,O=C(Cl)C1CCCCC1,41 to 42
22,CCCOc1ccccc1-c1ncc(C(=O)N(C)C)c(=O)[nH]1,104 to 105
23,COc1ccc(OC)c(C(=O)Nc2ccc(N3CCCC3)cc2C(C)=O)c1,137 to 140
24,CCS(=O)c1c(C#N)nn(-c2c(Cl)cc(C(F)(F)F)cc2Cl)c1NC (configuration not stated),142

# The remaining lines, values ahead:
row,melting point [°C],Structure (SMILES)
1,55 to 56,C=Cc1cccc(OC)c1[N+](=O)[O-]
2,> 60,CCCCCN(Cc1ccc(-c2ccccc2S(=O)(=O)NC(=O)c2ccccc2Cl)cc1)C(=O)N(Cc1ccccc1)c1ccccc1
3,186 to 191,COCCC(=O)c1cc2c(=O)n(NS(C)(=O)=O)c(=O)[nH]c2cc1C(F)(F)F
4,161 to 163,O=C(O)Cc1ccc(C2CCCCC2)c2ccccc12
5,79 to 86,CSCC(C)(C)NC(=O)c1c(I)cccc1C(=O)Nc1ccc(C(C)n2ccc(C(F)(F)F)n2)cc1C (configuration not stated)
6,47 to 48,O=CNc1ccccc1F
7,97 to 99,CC(=O)CCc1ccc(OCCCC(=O)O)cc1
8,205 to 207,C=C(C)CN1CCN(CC(=O)N2c3ccccc3C(=O)Nc3cccnc32)CC1
9,267 to 268,O=S1c2ccccc2Oc2ccc(-c3nnn[nH]3)cc21 (configuration not stated)
10,233,CCCCc1cnc2ccccc2c1Cc1ccc(C(=O)O)cc1
11,168,COc1ccc2c(c1)CCC1(C)C2=CCC2(C)C(O)CCC12 (configuration not stated)
12,203,O=C(NCCN(C1CC1)S(=O)(=O)c1ccccc1[N+](=O)[O-])N1CCN2C(=O)OC(c3cccc(F)c3)(c3cccc(F)c3)C2C1 (configuration not stated)
13,109 to 110,COc1cccc(Oc2c(Cl)ncnc2NS(=O)(=O)c2ccc(C(C)(C)C)cc2)c1
14,217 to 220,CCCc1nc2c(N)nc3cc(-c4ccccc4)ccc3c2n1NC(C)C
15,189 to 193,O=C(NCc1ccccc1)c1cnc(-c2ccccc2)nc1S
16,41 to 45,O=C(CCl)c1ccc(CCO)cc1
17,119 to 120,CCOC(=O)c1cn(N(C)C)c2ccccc2c1=O
18,156 to 158,CCOC(=O)c1ccc(-c2cc(O)c(SCCc3ccccc3)c(=O)o2)cc1
19,160 to 163,NC(=O)N(O)CCNC(=O)c1ccc(Oc2ccccc2)o1
20,163 to 165,COc1cc2c(c(Cl)c1Cl)CCC2=O
21,129 to 131,COC(=O)c1ccc(CN(O)Cc2ccc(C(=O)OC)cc2)cc1
22,81,CCCCC(CC)CNc1nc(N)nc(N)n1 (configuration not stated)
23,297 to 301,Cc1ccc(N2C(=O)NC(NCC(C)C)NC2=O)cc1
24,246 to 248,O=C1Nc2c(F)cc(CN3C(=O)CSC3=O)cc2C1=Cc1cc(CN2CCOCC2)c[nH]1

row,melting point [°C],Structure (SMILES)
1,224,Cc1ccc(-c2nc(N)ncc2-c2ccc(=O)n(C(C)C)n2)cc1
2,270 to 271,CN(c1cccc2cc(-c3nncs3)[nH]c12)S(=O)(=O)c1cccs1
3,107 to 109,CCCCCCCCCCCCNc1nc(NCC(O)C2CC(C)(C)NC(C)(C)C2)nc(NCC(O)C2CC(C)(C)NC(C)(C)C2)n1 (configuration not stated)
4,75 to 76,O=C(NCCSCc1cccc(Cl)c1)c1ccccc1
5,> 300,Oc1ncnc2[nH]c(-c3ccc4ccccc4c3)cc12
6,162 to 163,COc1cc(COc2nn(Cc3ccccc3)cc2C(=O)O)ccc1OCc1nc(-c2ccccc2)oc1C
7,157 to 160,O=C(NCC12CC3CC(CC(C3)C1)C2)c1c(Cl)ccc2nc(N3CCC[C@@H]3C(=O)O)ccc12
8,147 to 151,CC(=O)C1=CCC2C3CCC4CC(OS(=O)(=O)c5ccc(C)cc5)CCC4(C)C3C(=O)CC12C (configuration not stated)
9,143 to 145,COc1ccc(OCC2CC(Cn3ccnc3)(c3ccc4ccccc4c3)N(C)O2)cc1 (configuration not stated)
10,219 to 220,N#Cc1cccc(CCC(=O)c2c(O)c3cccnc3n(-c3ccccc3)c2=O)c1
11,212 to 213,Cc1ccc(C=CC(=O)NC(C)c2ccc(NS(C)(=O)=O)c(F)c2)cc1C (configuration not stated)
12,205 to 207,O=C(O)c1cccc(C(CC(=O)c2ccc(F)cc2)CC(=O)c2ccc(F)cc2)c1
13,190 to 192,CCOC(=O)c1c(C=O)c2ccc3oc4ccccc4c3c2n1C
14,198 to 200,O[C@H]1[C@H](O)CS[C@H]1n1cnc2c(Cl)nc(Cl)nc21
15,> 300,Nc1nc2c(ncn2[C@@H]2CO[C@H](CO)[C@@H](O)C2)c(=O)[nH]1
16,159 to 164,CN(C)c1ccc(NC(=O)N(C[C@H]2CC[C@H](CN(C(=O)Nc3ccc(N(C)C)cc3)C3CCCCCC3)CC2)C2CCCCCC2)cc1
17,147 to 151,Cc1noc([C@H]2CC[C@@](C)(NCC(=O)N3C[C@@H](F)C[C@H]3C#N)C2(C)C)n1
18,127 to 129,COCCOc1ccc(CCCOc2nn(C)cc2CC(=O)O)c(Oc2ncc(C(F)(F)F)cc2Cl)c1
19,125 to 128,CN(C(=O)OC(C)(C)C)c1ccc(-c2ncn(-c3ccc(OC(F)(F)F)cc3)n2)cc1
20,95 to 96,CCCN(CCC)C(=O)COc1nc(-c2ccc(F)cc2)nc2c1CCCC2
21,223 to 226,c1cc(Nc2nnc3c4c(cccc24)-c2ccccc2-3)cc(-n2ccnc2)c1
22,140 to 142,CC(=C1SC(=O)NC1=O)c1ccc(OCCOc2c(-c3ccc(F)c(F)c3)n(C)c3cc(Cl)ccc3c2=O)c(Cl)c1
23,136 to 138,COc1cc(NCCN(Cc2ccccc2)Cc2ccccc2)ccc1C(N)=O
24,188 to 190,N#Cc1ccccc1-n1nc(C2CCN(C#N)CC2)c2ccccc21
